Data taken from publication PMC10355420, “The glutathione import system satisfies the Staphylococcus aureus nutrient sulfur requirement and promotes interspecies competition” (PLOS Genetics, 2023).

Target: T1, recombinant GisA, SAUSA300_0200 (Staphylococcus aureus, UniProt A0A0H2XI71)
T1 construct: His-tagged, pET28b, purified from E. coli slyD mutant by Ni-NTA; ATPase subunit alone
T1 sequence (A0A0H2XI71 1-530): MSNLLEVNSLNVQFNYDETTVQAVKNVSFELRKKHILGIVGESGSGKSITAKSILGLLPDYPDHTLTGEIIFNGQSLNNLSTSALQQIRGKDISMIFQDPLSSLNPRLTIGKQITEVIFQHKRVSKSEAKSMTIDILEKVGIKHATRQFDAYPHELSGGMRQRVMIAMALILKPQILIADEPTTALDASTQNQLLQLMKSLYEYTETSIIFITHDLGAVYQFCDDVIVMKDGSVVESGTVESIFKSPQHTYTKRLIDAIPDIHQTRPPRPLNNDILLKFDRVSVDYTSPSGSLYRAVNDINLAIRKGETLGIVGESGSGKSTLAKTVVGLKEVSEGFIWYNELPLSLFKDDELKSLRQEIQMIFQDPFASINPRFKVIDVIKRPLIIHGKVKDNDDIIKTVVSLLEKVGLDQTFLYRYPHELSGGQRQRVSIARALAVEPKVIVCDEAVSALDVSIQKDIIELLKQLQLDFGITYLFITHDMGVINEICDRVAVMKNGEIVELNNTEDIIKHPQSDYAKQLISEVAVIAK
Experiment: ATP hydrolysis assay
Type: biochemical
Settings: GisA alone; details only in supplement

Compound: Nc1ncnc2c1ncn2[C@@H]1O[C@H](COP(=O)(O)OP(=O)(O)OP(=O)(O)O)[C@@H](O)[C@H]1O [ATP]
- ATP hydrolysis assay: recombinant GisA purified from Escherichia coli exhibits ATP hydrolysis activity
